Laboratory results published in US20250375460A1, “STAT DEGRADERS AND USES THEREOF” (Kymera Therapeutics, Inc., priority 2022, published 2025).

Molecular target: T1, STAT3 (Homo sapiens, UniProt P40763)
T1 construct: expressed in transfected cells; host or cells: A549
Experiment: STAT3 HiBiT degradation assay in transfected A549 cells
Assay type: cell-based
Details: 24 h compound incubation, Nano-Glo HiBiT lytic detection, read-out: STAT3 HiBiT A549 degradation 24 h: Average external-Abs DC50
Protocol: Compound preparation and Cell seeding: The transfected A549 cells were harvested from dish into cell culture medium and cell numbers counted. Cells were diluted with culture medium to the desired density and 30 μL of cell suspension (about 2000 cells/well) were added into each well of a 384-well cell culture plate as designated and transferred into 37° C. 5% CO2 incubator for 24 h. Compounds were dissolved to 10 mM stock solution and 12 μL of the stock solution was transferred to a 384 LDV-plate. 3 fold, 10-point dilution was performed by transferring 4 μL compound into 8 μL DMSO using a TECAN (EVO200) liquid handler. 30 μL of diluted compound from compound source plate was transferred into the cell plate as designated by using Echo550 and transferred into 37° C. 5% CO2 incubator for 24 h.
Detection: Plates were removed from incubators and equilibrated at room temperature for 15 minutes. Nano-Glo Hibit Lytic Detection reagent (Promega Cat #N3040) was thawed and equilibrated to room temperature before the experiment. 30 μL of Nano-Glo Hibit Lytic Detection reagent was added into each well to be detected. The plates were held at room temperature for 10 min followed by reading on EnSpire.
Data analysis: The remaining activity was calculated following the formula: Remaining Activity(%)=100%×(Lumsample−LumNC)/(LumPC−LumNC). Calculate the IC50 by fitting the curve using Xlfit (v5.3.1.3), equation 201: fit=(A+((B−A)/(1+((x/C)^D)))); A: Bottom; B: Top; C: IC50; and D: Slope.
The letter codes for STAT3 DC50 include: A (<0.001 μM), B (0.001-0.01 μM), C (0.01-0.1 μM), and D (>0.1 μM).

T1 sequence (P40763 whole entry): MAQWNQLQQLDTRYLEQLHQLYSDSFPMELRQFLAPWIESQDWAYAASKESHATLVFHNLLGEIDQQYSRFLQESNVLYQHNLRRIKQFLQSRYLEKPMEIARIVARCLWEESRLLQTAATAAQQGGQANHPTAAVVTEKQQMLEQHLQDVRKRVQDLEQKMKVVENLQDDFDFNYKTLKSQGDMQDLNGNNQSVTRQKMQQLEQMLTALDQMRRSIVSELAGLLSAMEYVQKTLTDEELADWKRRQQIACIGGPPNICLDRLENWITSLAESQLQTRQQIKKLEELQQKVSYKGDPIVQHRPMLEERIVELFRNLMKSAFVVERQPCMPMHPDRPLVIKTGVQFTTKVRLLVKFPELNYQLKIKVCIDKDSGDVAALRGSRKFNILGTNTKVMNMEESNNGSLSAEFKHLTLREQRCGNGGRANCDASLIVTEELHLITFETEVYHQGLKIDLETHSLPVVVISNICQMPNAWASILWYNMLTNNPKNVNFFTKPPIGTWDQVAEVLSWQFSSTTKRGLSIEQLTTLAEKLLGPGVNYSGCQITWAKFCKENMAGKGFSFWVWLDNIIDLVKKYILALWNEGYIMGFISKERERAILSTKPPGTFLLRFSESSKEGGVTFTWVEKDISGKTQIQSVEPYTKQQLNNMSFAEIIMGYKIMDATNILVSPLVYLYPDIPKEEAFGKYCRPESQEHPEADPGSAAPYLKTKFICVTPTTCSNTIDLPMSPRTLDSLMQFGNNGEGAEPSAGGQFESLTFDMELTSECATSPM

C#Cc1ccc(CNC(=O)[C@@H]2C[C@@H](O)CN2C(=O)[C@@H](NC(=O)CCCc2cccc(OC[C@H](CCC(N)=O)NC(=O)[C@@H]3CC[C@@H]4CCN(C(C)=O)C[C@H](NC(=O)c5cc6cc(C(=O)P(=O)(O)O)ccc6[nH]5)C(=O)N43)c2C)C(C)(C)C)cc1 [I-14]
DC50: 1 to 10 nM

C#Cc1ccc([C@H](C)NC(=O)[C@@H]2C[C@@H](O)CN2C(=O)[C@@H](c2cc(OCCCc3cccc(OC[C@H](CCC(N)=O)NC(=O)[C@@H]4CC[C@@H]5CCN(C(C)=O)C[C@H](NC(=O)c6cc7cc(C(=O)P(=O)(O)O)ccc7[nH]6)C(=O)N54)c3C)no2)C(C)C)cc1 [I-10]
DC50: 1 to 10 nM

C#Cc1ccc([C@H](C)NC(=O)[C@@H]2C[C@@H](O)CN2C(=O)[C@@H](c2cc(OCCCc3cccc(OC[C@H](CCC(N)=O)NC(=O)[C@@H]4CC[C@@H]5CCN(C(C)=O)C[C@H](NC(=O)c6cc7cc(C(=O)P(=O)(O)O)ccc7[nH]6)C(=O)N54)c3Cl)no2)C(C)C)cc1 [I-1]
DC50: < 1 nM

CC(=O)N1CC[C@@H]2CC[C@H](C(=O)N[C@@H](CCC(N)=O)COc3cccc(CCCCC(=O)N[C@H](C(=O)N4C[C@H](O)C[C@H]4C(=O)NCc4ccc(-c5scnc5C)cc4)C(C)(C)C)c3Cl)N2C(=O)[C@H](NC(=O)c2cc3cc(C(=O)P(=O)(O)O)ccc3[nH]2)C1 [I-24]
DC50: > 100 nM

C#Cc1ccc([C@H](C)NC(=O)[C@@H]2C[C@@H](O)CN2C(=O)[C@H](c2cc(OCCCc3cccc(OC[C@H](CCC(N)=O)NC(=O)[C@@H]4CC[C@@H]5CCN(C(C)=O)C[C@H](NC(=O)c6cc7cc(C(=O)P(=O)(O)O)ccc7[nH]6)C(=O)N54)c3C)no2)C(C)C)cc1 [I-11]
DC50: > 100 nM

CC(=O)N1CC[C@H]2CC[C@@H](C(=O)N[C@@H](CCC(N)=O)COc3cccc(CCCOc4cc([C@H](C(=O)N5C[C@H](O)C[C@H]5C(=O)N[C@@H](C)c5ccc(-c6scnc6C)cc5)C(C)C)on4)c3Cl)N2C(=O)[C@@H](NC(=O)c2cc3cc(C(=O)P(=O)(O)O)ccc3[nH]2)C1 [I-23]
DC50: < 1 nM

C#Cc1ccc([C@H](C)NC(=O)[C@@H]2C[C@@H](O)CN2C(=O)[C@@H](NC(=O)CCCc2cccc(OC[C@H](CCC(N)=O)NC(=O)[C@@H]3CC[C@@H]4CCN(C(C)=O)C[C@H](NC(=O)c5cc6cc(C(=O)P(=O)(O)O)ccc6[nH]5)C(=O)N43)c2Cl)C(C)(C)C)cc1 [I-4]
DC50: 1 to 10 nM

C#Cc1ccc(CNC(=O)[C@@H]2C[C@@H](O)CN2C(=O)[C@@H](NC(=O)CCCc2cccc(OC[C@H](CCC(N)=O)NC(=O)[C@@H]3CC[C@@H]4CCN(C(C)=O)C[C@H](NC(=O)c5cc6cc(C(=O)P(=O)(O)O)ccc6[nH]5)C(=O)N43)c2F)C(C)(C)C)cc1 [I-9]
DC50: 1 to 10 nM

CC(=O)N1CC[C@H]2CC[C@@H](S(=O)(=O)N[C@@H](CCC(N)=O)COc3cccc(CCCC(=O)N[C@H](C(=O)N4C[C@H](O)C[C@H]4C(=O)N[C@@H](C)c4ccc(-c5scnc5C)cc4)C(C)(C)C)c3Cl)N2C(=O)[C@@H](NC(=O)c2cc3cc(C(=O)P(=O)(O)O)ccc3[nH]2)C1 [I-30]
DC50: 1 to 10 nM

CCOP(=O)(OCC)C(=O)c1ccc2[nH]c(C(=O)N[C@H]3CN(C(C)=O)CC[C@H]4CC[C@@H](C(=O)N[C@@H](CCC(N)=O)COc5cccc(CCCOc6cc([C@H](C(=O)N7C[C@H](O)C[C@H]7C(=O)NCc7ccc(-c8scnc8C)cc7)C(C)C)on6)c5Cl)N4C3=O)cc2c1 [I-25]
DC50: 10 to 100 nM

C#Cc1ccc([C@H](C)NC(=O)[C@@H]2C[C@@H](O)CN2C(=O)[C@@H](NC(=O)CCCc2cccc(OC[C@H](CCC(N)=O)NC(=O)[C@@H]3CC[C@@H]4CCN(C(C)=O)C[C@H](NC(=O)c5cc6cc(C(=O)P(=O)(O)O)ccc6[nH]5)C(=O)N43)c2C)C(C)(C)C)cc1 [I-13]
DC50: 10 to 100 nM

CC(=O)N1CC[C@H]2CC[C@@H](C(=O)N[C@@H](CCC(N)=O)COc3cccc(CCCOc4cc([C@@H](C(=O)N5C[C@H](O)C[C@H]5C(=O)NCc5ccc(-c6scnc6C)cc5)C(C)C)on4)c3C)N2C(=O)[C@@H](NC(=O)c2cc3cc(C(=O)P(=O)(O)O)ccc3[nH]2)C1 [I-22]
DC50: 10 to 100 nM

CNC(=O)N1CC[C@H]2CC[C@@H](C(=O)N[C@@H](CCC(N)=O)COc3cccc(CCCC(=O)N[C@H](C(=O)N4C[C@H](O)C[C@H]4C(=O)N[C@@H](C)c4ccc(-c5scnc5C)cc4)C(C)(C)C)c3Cl)N2C(=O)[C@@H](NC(=O)c2cc3cc(C(F)(F)P(=O)(O)O)ccc3s2)C1 [I-26]
DC50: > 100 nM

C#Cc1ccc(CNC(=O)[C@@H]2C[C@@H](O)CN2C(=O)[C@@H](c2cc(OCCCc3cccc(OC[C@H](CCC(N)=O)NC(=O)[C@@H]4CC[C@@H]5CCN(C(C)=O)C[C@H](NC(=O)c6cc7cc(C(=O)P(=O)(O)O)ccc7[nH]6)C(=O)N54)c3Cl)no2)C(C)C)cc1 [I-3]
DC50: < 1 nM

CC(=O)N1CC[C@H]2CC[C@@H](C(=O)N[C@@H](CCC(N)=O)COc3cccc(CCCOc4cc([C@H](C(=O)N5C[C@H](O)C[C@H]5C(=O)NCc5ccc(-c6scnc6C)cc5)C(C)C)on4)c3C)N2C(=O)[C@@H](NC(=O)c2cc3cc(C(=O)P(=O)(O)O)ccc3[nH]2)C1 [I-21]
DC50: < 1 nM

CC(=O)N1CC[C@H]2CC[C@@H](C(=O)N[C@@H](CCC(N)=O)COc3cccc(CCCOc4cc([C@@H](C(=O)N5C[C@H](O)C[C@H]5C(=O)N[C@@H](C)c5ccc(-c6scnc6C)cc5)C(C)C)on4)c3Cl)N2C(=O)[C@@H](NC(=O)c2cc3cc(C(=O)P(=O)(O)O)ccc3[nH]2)C1 [I-2]
DC50: 10 to 100 nM

C#Cc1ccc(CNC(=O)[C@@H]2C[C@@H](O)CN2C(=O)[C@@H](c2cc(OCCCc3cccc(OC[C@H](CCC(N)=O)NC(=O)[C@@H]4CC[C@@H]5CCN(C(C)=O)C[C@H](NC(=O)c6cc7cc(C(=O)P(=O)(O)O)ccc7[nH]6)C(=O)N54)c3F)no2)C(C)C)cc1 [I-7]
DC50: < 1 nM

CC(=O)N1CC[C@H]2CC[C@@H](C(=O)N[C@@H](CCC(N)=O)COc3cccc(CCCOc4cc([C@@H](C(=O)N5C[C@H](O)C[C@H]5C(=O)N[C@@H](C)c5ccc(-c6scnc6C)cc5)C(C)C)on4)c3C)N2C(=O)[C@@H](NC(=O)c2cc3cc(C(=O)P(=O)(O)O)ccc3[nH]2)C1 [I-20]
DC50: 10 to 100 nM

C#Cc1ccc([C@H](C)NC(=O)[C@@H]2C[C@@H](O)CN2C(=O)[C@@H](NC(=O)CCCc2cccc(OC[C@H](CCC(N)=O)NC(=O)[C@@H]3CC[C@@H]4CCN(C(C)=O)C[C@H](NC(=O)c5cc6cc(C(=O)P(=O)(O)O)ccc6[nH]5)C(=O)N43)c2F)C(C)(C)C)cc1 [I-8]
DC50: 1 to 10 nM

CC(=O)N1CC[C@H]2CC[C@@H](C(=O)N[C@@H](CCC(N)=O)COc3cccc(CCCOc4cc([C@H](C(=O)N5C[C@H](O)C[C@H]5C(=O)NCc5ccc(-c6scnc6C)cc5)C(C)C)on4)c3Cl)N2C(=O)[C@@H](NC(=O)c2cc3cc(C(=O)P(=O)(O)O)ccc3[nH]2)C1 [I-27]
DC50: < 1 nM

C#Cc1ccc(CNC(=O)[C@@H]2C[C@@H](O)CN2C(=O)[C@@H](NC(=O)CCCc2cccc(OC[C@H](CCC(N)=O)NC(=O)[C@@H]3CC[C@@H]4CCN(C(C)=O)C[C@H](NC(=O)c5cc6cc(C(=O)P(=O)(O)O)ccc6[nH]5)C(=O)N43)c2Cl)C(C)(C)C)cc1 [I-5]
DC50: 1 to 10 nM

CC(=O)N1CC[C@H]2CC[C@@H](C(=O)N[C@@H](CCC(N)=O)COc3cccc(CCCOc4cc([C@H](C(=O)N5C[C@H](O)C[C@H]5C(=O)N[C@@H](C)c5ccc(-c6scnc6C)cc5)C(C)C)on4)c3F)N2C(=O)[C@@H](NC(=O)c2cc3cc(C(=O)P(=O)(O)O)ccc3[nH]2)C1 [I-15]
DC50: < 1 nM
